Structures can show the parent of a compound that is named as a salt. Marks after values point to notes of the source that are not given here.
Legend:
[1] = test system: male C57BL/6 mice; assay: Comparative grip strength testing for ursolic acid and salts thereof (standard chow, 6 weeks); type: in vivo; conditions: for Grip Strength (% Change vs. Control): standard chow supplemented, 6 weeks, doses molar-matched to 0.050% ursolic acid (0.048% for diethanolamine salt): 0.050% ursolic acid, 0.057% ethanolamine, 0.063% tris, 0.066% lysine, 0.060% diethanolamine, 0.059% morpholine, 0.059% piperazine salt, mean ± SEM, 12 mice
Text: Weight-matched cohorts of 8-week old male C57BL/6 mice were randomized to receive ad libitum access to either standard chow (control) or standard chow supplemented with either 0.050% ursolic acid, 0.200% ursolic acid, or one of the indicated ursolic acid salts: ursolic acid-ethanolamine salt; ursolic acid-tris(hydroxymethyl)aminomethane salt, hereinafter referred to as ursolic acid-“tris” salt; ursolic acid-lysine salt; ursolic acid-diethanolamine salt; ursolic acid-morpholine salt; or ursolic acid-piperazine salt. The ursolic acid-diethanolamine salt and ursolic acid-morpholine salt were prepared as described above. Ursolic acid was commercially obtained, and was used as a starting material to make the other ursolic acid salts according to techniques analogous to those above and known in the art. The doses of ursolic acid salts were molar-matched to either 0.050% ursolic acid (i.e. 0.057% ursolic acid-ethanolamine salt, 0.063% ursolic acid-tris salt, 0.066% ursolic acid-lysine salt, 0.059% ursolic acid-morpholine salt, and 0.059% ursolic acid-piperazine salt) or to 0.048% ursolic acid (i.e. 0.060% ursolic acid-diethanolamine salt). After mice had consumed these diets for 6 weeks, in vivo grip strength was measured.

[2] = test system: male C57BL/6 mice; assay: Ursolic acid-diethanolamine salt: body weight and composition testing (standard chow, 7 weeks); type: in vivo
Experimental: After mice had consumed these diets for 7 weeks, mice were weighed and body composition was assessed by NMR. Data are means±SEM from 15 mice per cohort. *P<0.05.

SMILES: C[C@H]1[C@H](C)CC[C@]2(C(=O)O)CC[C@]3(C)C(=CCC4[C@@]5(C)CC[C@H](O)C(C)(C)C5CC[C@]43C)[C@H]12 (some centres unmarked) [Ursolic Acid-Diethanolamine Salt, ursolic acid diethanolamine salt]
- Potency and efficacy compared with native ursolic acid and other ursolic acid salts ([1]; conclusion from Table I grip strength data): more potent and efficacious
- Grip Strength (% Change vs. Control) [1]: 11.7 ± 2.5 %
- Final % Fat ([2]; 0.060% in standard chow): 16.6 ± 2.0%
- Final % Lean ([2]; 0.060% in standard chow): 64.2 ± 1.6%
- Final Body Wt ([2]; 0.060% in standard chow): 31.7 ± 0.5 g
- Final Fat Mass ([2]; 0.060% in standard chow): 5.3 ± 0.7 g
- Final Lean Mass ([2]; 0.060% in standard chow): 20.3 ± 0.4* g
- Final % Fat ([2]; 0.180% in standard chow): 14.1 ± 1.8* %
- Final % Lean ([2]; 0.180% in standard chow): 65.5 ± 1.4* %
- Final Body Wt ([2]; 0.180% in standard chow): 30.7 ± 0.5 g
- Final Fat Mass ([2]; 0.180% in standard chow): 4.4 ± 0.6* g
- Final Lean Mass ([2]; 0.180% in standard chow): 20.0 ± 0.3 g
- Lean mass and fat mass (conclusion) ([2]; conclusion from Table IV, standard chow): increased lean mass and decreased fat mass

SMILES: CC1CCC2(C(=O)O)CCC3(C)C(=CCC4C5(C)CCC(O)C(C)(C)C5CCC43C)C2C1C.NCCO (centres unmarked) [Ursolic Acid-Ethanolamine Salt, ursolic acid-ethanolamine salt]
- Grip Strength (% Change vs. Control) [1]: 2.8 ± 1.6%

SMILES: CC1CCC2(C(=O)O)CCC3(C)C(=CCC4C5(C)CCC(O)C(C)(C)C5CCC43C)C2C1C.NCCCCC(N)C(=O)O (centres unmarked) [Ursolic Acid-Lysine Salt, ursolic acid-lysine salt]
- Grip Strength (% Change vs. Control) [1]: 7.2 ± 2.3%

SMILES: C1CNCCN1.C[C@H]1[C@H](C)CC[C@]2(C(=O)O)CC[C@]3(C)C(=CC[C@@H]4[C@@]5(C)CC[C@H](O)C(C)(C)[C@@H]5CC[C@]43C)[C@H]12 [Ursolic Acid-Piperazine Salt, ursolic acid-piperazine salt]
- Grip Strength (% Change vs. Control) [1]: 3.7 ± 2.5%

SMILES: CC1CCC2(C(=O)O)CCC3(C)C(=CCC4C5(C)CCC(O)C(C)(C)C5CCC43C)C2C1C.NC(CO)(CO)CO (centres unmarked) [Ursolic Acid-Tris Salt, ursolic acid-tris(hydroxymethyl)aminomethane salt]
- Grip Strength (% Change vs. Control) [1]: 5.2 ± 1.6%
